From the OligoGym collection come the findings set out here.

HELM strings list units from the 5' end as sugar, base in round brackets, then linkage (d deoxyribose, r ribose, m 2'-O-methyl, p phosphodiester). Strings are as the collection lists them; they lack the last nucleoside at the 3' end of the tested compound. [moe] = 2'-O-(2-methoxyethyl) (MOE); [sp] = phosphorothioate linkage; [m5C] = 5-methylcytosine

For this data set, the target named is UBE3A-ATS. Briefly: mouse, dose not given. As to conditions: ASO.

“RNA1{[moe]([m5C])[sp].[moe](T)p.[moe](A)p.[moe](G)p.[moe](G)p.d([m5C])[sp].d(A)[sp].d(G)[sp].d([m5C])[sp].d(T)[sp].d([m5C])[sp].d(T)[sp].d(T)[sp].d(T)[sp].d(G)[sp].[moe](T)p.[moe](A)p.[moe](G)[sp].[moe](G)}$$$$ (last 3' nucleoside missing)” showed a 3 h FOB score of 0.3 score 0-7. Under “RNA1{[moe]([m5C])[sp].[moe](T)p.[moe](A)p.[moe](T)p.[moe]([m5C])p.d(A)[sp].d(A)[sp].d(G)[sp].d(G)[sp].d([m5C])[sp].d(T)[sp].d(G)[sp].d(T)[sp].d(T)[sp].d(A)[sp].[moe](T)p.[moe](T)p.[moe](G)[sp].[moe](G)}$$$$ (last 3' nucleoside missing)” stands 4 score 0-7; under “RNA1{[moe]([m5C])[sp].[moe](T)p.[moe](A)p.[moe](T)p.[moe]([m5C])p.d(T)[sp].d(G)[sp].d(T)[sp].d(A)[sp].d([m5C])[sp].d(A)[sp].d(A)[sp].d(A)[sp].d(A)[sp].d(T)[sp].[moe](G)p.[moe](G)p.[moe](A)[sp].[moe](A)}$$$$ (last 3' nucleoside missing)”, 0 score 0-7; under “RNA1{[moe]([m5C])[sp].[moe](T)p.[moe](G)p.[moe](A)p.[moe](G)p.d(T)[sp].d([m5C])[sp].d(A)[sp].d(G)[sp].d(T)[sp].d([m5C])[sp].d([m5C])[sp].d(A)[sp].d(A)[sp].d(A)[sp].[moe](T)p.[moe](G)p.[moe](A)[sp].[moe](A)}$$$$ (last 3' nucleoside missing)”, 0.5 score 0-7. Under “RNA1{[moe]([m5C])[sp].[moe](T)p.[moe](G)p.[moe](A)p.[moe](T)p.[moe]([m5C])p.d(A)[sp].d([m5C])[sp].d(A)[sp].d(T)[sp].d(T)[sp].d(A)[sp].d([m5C])[sp].d([m5C])[sp].d([m5C])[sp].d(A)[sp].[moe](T)p.[moe]([m5C])[sp].[moe]([m5C])}$$$$ (last 3' nucleoside missing)” stands 0 score 0-7; under “RNA1{[moe]([m5C])[sp].[moe](T)p.[moe](G)p.[moe](A)p.[moe](T)p.d([m5C])[sp].d(A)[sp].d([m5C])[sp].d(A)[sp].d(T)[sp].d(T)[sp].d(A)[sp].d([m5C])[sp].d([m5C])[sp].d([m5C])[sp].[moe](A)p.[moe](T)p.[moe]([m5C])[sp].[moe]([m5C])}$$$$ (last 3' nucleoside missing)”, 1 score 0-7; under “RNA1{[moe]([m5C])[sp].[moe](T)p.[moe](G)p.[moe](A)p.d(T)[sp].d([m5C])[sp].d(A)[sp].d([m5C])[sp].d(A)[sp].d(T)[sp].d(T)[sp].d(A)[sp].d([m5C])[sp].d([m5C])[sp].[moe]([m5C])p.[moe](A)p.[moe](T)p.[moe]([m5C])[sp].[moe]([m5C])}$$$$ (last 3' nucleoside missing)”, 0 score 0-7. The substance “RNA1{[moe]([m5C])[sp].[moe](T)p.[moe](G)p.[moe](G)p.[moe](T)p.d(A)[sp].d(G)[sp].d(G)[sp].d(A)[sp].d(T)[sp].d([m5C])[sp].d(T)[sp].d(A)[sp].d(T)[sp].d(G)[sp].[moe](G)p.[moe]([m5C])p.[moe](A)[sp].[moe](G)}$$$$ (last 3' nucleoside missing)” showed a 3 h FOB score of 2.3 score 0-7.

In turn, “RNA1{[moe]([m5C])[sp].[moe](T)p.[moe](G)p.[moe](T)p.[moe](A)p.d(A)[sp].d(G)[sp].d(G)[sp].d(T)[sp].d(G)[sp].d(A)[sp].d(T)[sp].d(A)[sp].d(T)[sp].d([m5C])[sp].[moe](T)p.[moe](A)p.[moe](T)[sp].[moe](A)}$$$$ (last 3' nucleoside missing)” yielded a 3 h FOB score of 3 score 0-7. The substance “RNA1{[moe]([m5C])[sp].[moe](T)p.[moe](G)p.[moe](T)p.[moe](A)p.d(A)[sp].d(G)[sp].d(T)[sp].d(A)[sp].d(T)[sp].d(A)[sp].d(G)[sp].d(A)[sp].d(T)[sp].d(G)[sp].[moe]([m5C])p.[moe]([m5C])p.[moe](T)[sp].[moe]([m5C])}$$$$ (last 3' nucleoside missing)” had a 3 h FOB score of 3.2 score 0-7. “RNA1{[moe]([m5C])[sp].[moe](T)p.[moe](G)p.[moe](T)p.[moe](A)p.d(T)[sp].d(A)[sp].d(G)[sp].d(T)[sp].d(T)[sp].d(T)[sp].d(A)[sp].d([m5C])[sp].d([m5C])[sp].d([m5C])[sp].[moe](A)p.[moe](G)p.[moe](G)[sp].[moe]([m5C])}$$$$ (last 3' nucleoside missing)” returned a 3 h FOB score of 0 score 0-7. Turning to “RNA1{[moe]([m5C])[sp].[moe](T)p.[moe](G)p.[moe]([m5C])p.[moe](T)p.[moe](T)p.d([m5C])[sp].d(A)[sp].d([m5C])[sp].d([m5C])[sp].d(A)[sp].d(T)[sp].d(T)[sp].d(T)[sp].d(T)[sp].d(G)[sp].[moe](A)p.[moe]([m5C])[sp].[moe]([m5C])}$$$$ (last 3' nucleoside missing)”, the 3 h FOB score is 0 score 0-7.

Consider “RNA1{[moe]([m5C])[sp].[moe](T)p.[moe](G)p.[moe]([m5C])p.[moe](T)p.[moe]([m5C])p.d(A)[sp].d(G)[sp].d(T)[sp].d(T)[sp].d(A)[sp].d(G)[sp].d(G)[sp].d(T)[sp].d(T)[sp].d(A)[sp].[moe](G)p.[moe](T)[sp].[moe](G)}$$$$ (last 3' nucleoside missing)”, for which the 3 h FOB score stood at 3 score 0-7. Under “RNA1{[moe]([m5C])[sp].[moe](T)p.[moe](G)p.[moe]([m5C])p.[moe](T)p.d(T)[sp].d(A)[sp].d(T)[sp].d(G)[sp].d(T)[sp].d(A)[sp].d(G)[sp].d([m5C])[sp].d(T)[sp].d([m5C])[sp].[moe](A)p.[moe](G)p.[moe]([m5C])[sp].[moe](T)}$$$$ (last 3' nucleoside missing)” stands 1 score 0-7. “RNA1{[moe]([m5C])[sp].[moe](T)p.[moe](G)p.[moe]([m5C])p.[moe](T)p.d(T)[sp].d([m5C])[sp].d(A)[sp].d([m5C])[sp].d([m5C])[sp].d(A)[sp].d(T)[sp].d(T)[sp].d(T)[sp].d(T)[sp].[moe](G)p.[moe](A)p.[moe]([m5C])[sp].[moe]([m5C])}$$$$ (last 3' nucleoside missing)” had a 3 h FOB score of 1.3 score 0-7. Substance “RNA1{[moe]([m5C])[sp].[moe](T)p.[moe](G)p.[moe]([m5C])p.[moe](T)p.d([m5C])[sp].d(A)[sp].d(G)[sp].d(T)[sp].d(T)[sp].d(A)[sp].d(G)[sp].d(G)[sp].d(T)[sp].d(T)[sp].[moe](A)p.[moe](G)p.[moe](T)[sp].[moe](G)}$$$$ (last 3' nucleoside missing)” registered a 3 h FOB score of 3.3 score 0-7.

Substance “RNA1{[moe]([m5C])[sp].[moe](T)p.[moe](G)p.[moe]([m5C])p.d(T)[sp].d(T)[sp].d([m5C])[sp].d(A)[sp].d([m5C])[sp].d([m5C])[sp].d(A)[sp].d(T)[sp].d(T)[sp].d(T)[sp].[moe](T)p.[moe](G)p.[moe](A)p.[moe]([m5C])[sp].[moe]([m5C])}$$$$ (last 3' nucleoside missing)” had a 3 h FOB score of 0 score 0-7. “RNA1{[moe]([m5C])[sp].[moe](T)p.[moe](G)p.[moe]([m5C])p.d(T)[sp].d([m5C])[sp].d(A)[sp].d(G)[sp].d(T)[sp].d(T)[sp].d(A)[sp].d(G)[sp].d(G)[sp].d(T)[sp].[moe](T)p.[moe](A)p.[moe](G)p.[moe](T)[sp].[moe](G)}$$$$ (last 3' nucleoside missing)”: the 3 h FOB score is 4 score 0-7.

As to “RNA1{[moe]([m5C])[sp].[moe](T)p.[moe](T)p.[moe](A)p.[moe](A)p.d(A)[sp].d(T)[sp].d(A)[sp].d(G)[sp].d(T)[sp].d(A)[sp].d(G)[sp].d(G)[sp].d(A)[sp].d(A)[sp].[moe](A)p.[moe](G)p.[moe]([m5C])[sp].[moe]([m5C])}$$$$ (last 3' nucleoside missing)”, the 3 h FOB score was found to be 4.8 score 0-7.

“RNA1{[moe]([m5C])[sp].[moe](T)p.[moe](T)p.[moe](A)p.[moe](G)p.d(A)[sp].d(T)[sp].d(G)[sp].d(T)[sp].d(G)[sp].d(T)[sp].d(T)[sp].d(T)[sp].d(A)[sp].d(T)[sp].[moe]([m5C])p.[moe]([m5C])p.[moe](A)[sp].[moe](A)}$$$$ (last 3' nucleoside missing)” came in with a 3 h FOB score of 1.2 score 0-7.

Substance “RNA1{[moe]([m5C])[sp].[moe](T)p.[moe](T)p.[moe](A)p.[moe](G)p.d(G)[sp].d([m5C])[sp].d(A)[sp].d(A)[sp].d(T)[sp].d(G)[sp].d(G)[sp].d(A)[sp].d([m5C])[sp].d(T)[sp].[moe](T)p.[moe](A)p.[moe](G)[sp].[moe](T)}$$$$ (last 3' nucleoside missing)” showed a 3 h FOB score of 1 score 0-7. Under “RNA1{[moe]([m5C])[sp].[moe](T)p.[moe](T)p.[moe](A)p.[moe](T)p.d(G)[sp].d(T)[sp].d(A)[sp].d(G)[sp].d([m5C])[sp].d(T)[sp].d([m5C])[sp].d(A)[sp].d(G)[sp].d([m5C])[sp].[moe](T)p.[moe]([m5C])p.[moe](A)[sp].[moe](A)}$$$$ (last 3' nucleoside missing)” stands 2 score 0-7; under “RNA1{[moe]([m5C])[sp].[moe](T)p.[moe](T)p.[moe](G)p.[moe](A)p.d(T)[sp].d(G)[sp].d(G)[sp].d([m5C])[sp].d(T)[sp].d(G)[sp].d(T)[sp].d(A)[sp].d(G)[sp].d([m5C])[sp].[moe](T)p.[moe](T)p.[moe](G)[sp].[moe](G)}$$$$ (last 3' nucleoside missing)”, 5 score 0-7. With “RNA1{[moe]([m5C])[sp].[moe](T)p.[moe](T)p.[moe](T)p.[moe](A)p.d(G)[sp].d(T)[sp].d(A)[sp].d(T)[sp].d(G)[sp].d(T)[sp].d([m5C])[sp].d(G)[sp].d(A)[sp].d(G)[sp].[moe](A)p.[moe](A)p.[moe]([m5C])[sp].[moe](T)}$$$$ (last 3' nucleoside missing)” the figure was 5 score 0-7; with “RNA1{[moe]([m5C])[sp].[moe](T)p.[moe](T)p.[moe](T)p.[moe](A)p.d(T)[sp].d(A)[sp].d([m5C])[sp].d(T)[sp].d(T)[sp].d(T)[sp].d(A)[sp].d([m5C])[sp].d([m5C])[sp].d([m5C])[sp].[moe](A)p.[moe](A)p.[moe]([m5C])[sp].[moe](T)}$$$$ (last 3' nucleoside missing)”, 0 score 0-7.
